Reference: patent US9321762B2, “Quinazoline compounds, method for preparing the same and use thereof” (DEVELOPMENT CENTER FOR BIOTECHNOLOGY, priority 2013, dated 2016)
Where two headings read alike, the source gives them in different places.

Tests used:
[1] = biological target: T1, B-Raf kinase (Homo sapiens, UniProt P15056); assay: B-Raf kinase assay ([33P] incorporation into MEK1(K97R)); type: biochemical; conditions: class symbols; 8 μM ATP; read-out: IC50 against B-Raf kinase
T1 construct: purchased Upstate Biotechnology
T1 sequence (P15056 whole entry): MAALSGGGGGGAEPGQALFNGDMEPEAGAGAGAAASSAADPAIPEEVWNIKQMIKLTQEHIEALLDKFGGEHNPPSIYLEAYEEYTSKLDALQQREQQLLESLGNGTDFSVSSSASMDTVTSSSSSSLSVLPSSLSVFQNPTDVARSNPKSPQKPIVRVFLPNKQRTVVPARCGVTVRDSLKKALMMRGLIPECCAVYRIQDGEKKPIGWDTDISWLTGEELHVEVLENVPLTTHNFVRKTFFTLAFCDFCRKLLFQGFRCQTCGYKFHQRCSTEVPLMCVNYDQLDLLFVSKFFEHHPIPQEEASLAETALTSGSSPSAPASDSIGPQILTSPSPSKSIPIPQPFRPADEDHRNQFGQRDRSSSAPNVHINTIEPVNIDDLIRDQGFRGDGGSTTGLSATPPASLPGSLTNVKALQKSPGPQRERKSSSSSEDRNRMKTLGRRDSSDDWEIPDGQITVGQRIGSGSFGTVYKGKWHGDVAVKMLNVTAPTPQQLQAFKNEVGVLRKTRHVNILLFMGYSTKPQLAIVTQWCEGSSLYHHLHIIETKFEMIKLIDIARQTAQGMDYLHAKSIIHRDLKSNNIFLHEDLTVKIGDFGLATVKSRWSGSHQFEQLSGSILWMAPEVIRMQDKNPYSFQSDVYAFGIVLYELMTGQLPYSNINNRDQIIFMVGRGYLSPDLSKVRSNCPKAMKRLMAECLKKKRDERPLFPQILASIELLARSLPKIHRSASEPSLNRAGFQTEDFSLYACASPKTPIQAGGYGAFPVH
Method: (§1) Inhibition of kinase activity by a test compound disclosed herein was estimated by quantifying the amount of [^33P] incorporation of a substrate in the presence of the test compound. Standard assay conditions were 5 ng of recombinant B-Raf kinase (Upstate Biotechnology) with 500 ng MEK1(K97R) in assay buffer (8 μM ATP, 0.5 μCi [^33P]ATP (specific activity 3000 Ci/mmol, PerkinElmer), 50 mM Tris/HCl (pH7.5), and 1 mM EGTA, 1 mM Na3VO4, 1% 2-mercaptoethanol, 0.1% Brij 35, and 0.2 mg/ml BSA) in a final volume of 25 μL. Reactions were incubated at 30° C. for 30 min and stopped by adding 3% phosphoric acid, harvested onto a 96-well GF/B UniFilter (PerkinElmer) using a unifilter harvester (PerkinElmer), and counted with a TopCount microplate scintillation counter (PerkinElmer). The IC50 values of inhibitors were determined after carrying out assays at 3-fold serially diluted concentrations of each compound in duplication. The results were analyzed using linear regression software (GraphPad Prism 4; GraphPad Software Inc.).

[2] = biological target: T2, VEGFR2 kinase (Homo sapiens, UniProt P35968); assay: VEGFR2 radiometric kinase assay; type: biochemical; conditions: given as bound; 100 μM ATP; read-out: Inhibition activity, IC50 VEGFR2
T2 construct: VEGFR2 kinase domain alone, Millipore; purchased Millipore
T2 sequence (P35968 834-1162 limits assumed): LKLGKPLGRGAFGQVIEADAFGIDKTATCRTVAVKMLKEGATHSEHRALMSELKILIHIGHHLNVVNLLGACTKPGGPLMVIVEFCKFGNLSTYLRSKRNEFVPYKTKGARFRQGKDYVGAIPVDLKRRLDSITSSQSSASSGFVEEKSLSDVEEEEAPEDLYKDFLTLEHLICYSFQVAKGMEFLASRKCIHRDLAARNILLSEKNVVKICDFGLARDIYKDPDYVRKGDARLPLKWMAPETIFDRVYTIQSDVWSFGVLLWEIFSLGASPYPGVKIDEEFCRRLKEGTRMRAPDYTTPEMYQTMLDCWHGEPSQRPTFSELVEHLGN
Method: (§2) The inhibitory activity against VEGFR2 or EGFR was determined by radiometric kinase assay. The experimental condition for VEGFR2 kinase assay was 6.25 ng of recombinant VEGFR2 kinase (VEGFR2 kinase domain alone, Millipore), 5 μg of substrate Poly(Glu-Tyr) (4:1, Sigma), kinase reaction buffer (20 mM MOPS pH 7.0, 1 mM EDTA, 5% glycerol, 0.01% Brij-35, 0.1% β-mercaptoethanol, 1 mg/mL BSA, 100 μM ATP, and 0.1 μCi per well [^33P] ATP (specific activity 3000 Ci/mmol, PerkinElmer)), and the test compound (diluted with 4% DMSO) or DMSO alone (as a control) in a final volume of 25 μL. Reactions were incubated at 30° C. for 30 min and stopped by adding 3% phosphoric acid, harvested onto a 96-well GF/B UniFilter (PerkinElmer) using a unifilter harvester (PerkinElmer), and counted with a TopCount microplate scintillation counter (PerkinElmer).
(§3) Results of inhibition activity against VEGFR2 and EGFR kinases by the selected compounds, which have IC50 values on B-Raf kinase <300 nM, are summarized in Table 6.

[3] = biological target: T3, EGFR kinase (Homo sapiens, UniProt P00533); assay: EGFR radiometric kinase assay; type: biochemical; conditions: 100 μM ATP, read-out: Inhibition activity, IC50 EGFR
T3 construct: EGFR kinase domain alone, Millipore; purchased Millipore
T3 sequence (P00533 712-979 limits assumed): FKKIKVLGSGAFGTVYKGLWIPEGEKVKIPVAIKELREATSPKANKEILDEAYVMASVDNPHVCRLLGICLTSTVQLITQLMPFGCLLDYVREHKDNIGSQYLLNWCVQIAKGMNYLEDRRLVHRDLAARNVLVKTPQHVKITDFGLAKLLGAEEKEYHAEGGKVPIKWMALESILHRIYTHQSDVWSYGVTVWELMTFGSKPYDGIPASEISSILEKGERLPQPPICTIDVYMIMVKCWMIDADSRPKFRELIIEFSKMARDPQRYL
Method: as §2
The experimental condition for EGFR kinase assay was 25 ng of EGFR kinase (EGFR kinase domain alone, Millipore), 3 μg of the substrate poly(Glu-Tyr), (Sigma), kinase reaction buffer (10 mM MOPS pH 7.0, 0.3 mM EDTA, 0.5% glycerol, 0.001% Brij-35, 10 mM MnCl2, 0.1 mg/ml BSA, 100 μM ATP, and 0.1 μCi per well [^33P]ATP (specific activity 3000 Ci/mmol, PerkinElmer)), and the test compound (diluted with 4% DMSO) or DMSO (as a control) in a final volume of 25 μL. Reactions were incubated at 30° C. for 30 min and stopped by adding 3% phosphoric acid, harvested onto a 96-well GF/B UniFilter (PerkinElmer) using a unifilter harvester (PerkinElmer), and counted with a TopCount microplate scintillation counter (PerkinElmer).
as §3

[4] = system: A375 melanoma cells and COLO205 colon cancer cells; assay: Cell proliferation assay (CellTiter-96); type: cell-based; conditions: Homo sapiens; A375 or COLO205, 72 hours treatment; read-out: Cytotoxicity IC50 for A375 or COLO205
Method: The anti-proliferative activities of compounds of formula (I) against B-Raf(V600E) mutant human cancer cell lines, A375 melanoma cells and COLO205 colon cancer cells, were measured using the CellTiter™-96 assay kit (Promega) following the manufacturer's instructions. In brief, the cells were maintained in DMEM containing 10% FCS and incubated at 37° C. in 5% CO2 atmosphere. Cells were plated at a density of 2,000 cells/well on a 96-well plate and incubated for 24 h. Then, these cells were treated with different concentrations of the test compounds and incubated for another 72 hours. At the end of the incubation, CellTiter™-96 Aqueous One Solution Reagent (Promega) was added and incubated for another 4.0 hours. Cell viability was determined by measuring absorbance at 490 nm using EMax® microplate reader (Molecular Devices). Data were processed and analyzed using GraphPad Prism.

[5] = biological target: T4, C-Raf kinase (Homo sapiens, UniProt P04049); assay: C-Raf kinase assay ([33P] incorporation into MEK1(K97R)); type: biochemical; conditions: class symbols; 8 μM ATP; read-out: IC50 against C-Raf kinase
T4 construct: purchased Upstate Biotechnology
T4 sequence (P04049 whole entry): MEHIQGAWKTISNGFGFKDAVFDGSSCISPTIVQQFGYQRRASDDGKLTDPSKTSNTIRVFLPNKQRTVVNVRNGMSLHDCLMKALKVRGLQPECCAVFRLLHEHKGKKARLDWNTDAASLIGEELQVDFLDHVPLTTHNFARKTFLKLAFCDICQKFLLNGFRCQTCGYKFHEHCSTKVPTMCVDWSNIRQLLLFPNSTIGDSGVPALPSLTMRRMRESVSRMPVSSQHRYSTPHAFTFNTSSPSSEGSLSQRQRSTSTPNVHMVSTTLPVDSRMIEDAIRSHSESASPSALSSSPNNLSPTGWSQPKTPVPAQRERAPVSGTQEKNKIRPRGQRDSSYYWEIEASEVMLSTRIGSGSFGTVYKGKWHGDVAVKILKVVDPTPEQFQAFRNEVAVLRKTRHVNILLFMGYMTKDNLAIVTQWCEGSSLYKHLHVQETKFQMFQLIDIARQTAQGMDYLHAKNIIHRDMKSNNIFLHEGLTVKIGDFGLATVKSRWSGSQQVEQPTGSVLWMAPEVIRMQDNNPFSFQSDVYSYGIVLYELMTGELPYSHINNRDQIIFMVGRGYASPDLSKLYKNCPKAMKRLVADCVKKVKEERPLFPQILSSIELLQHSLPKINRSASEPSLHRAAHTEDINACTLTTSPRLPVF
Method: as §1, with “were 2” for “were 5”, “recombinant C-Raf” for “recombinant B-Raf”, “ng MEK1 (K97R)” for “ng MEK1(K97R)”, “μCi [^33P] ATP” for “μCi [^33P]ATP”, “mg/ml BSA), and the test compound (diluted with 4% DMSO) or DMSO alone (as a control)” for “mg/ml BSA)”

[6] = biological target: T5, B-Raf(V600E) kinase (Homo sapiens, UniProt P15056, V600E); assay: B-Raf(V600E) kinase assay ([33P] incorporation into MEK1(K97R)); type: biochemical; conditions: class symbols; 8 μM ATP; read-out: IC50 against B-Raf(V600E) kinase
T5 construct: purchased Upstate Biotechnology
T5 sequence (P15056 whole entry V600E): as the sequence (P15056 whole entry) above, with V600E counted along it
Method: as §1, with “B-Raf(V600E)” for “B-Raf”, “MEK1 (K97R)” for “MEK1(K97R)”, “[^33P] ATP” for “[^33P]ATP”, “BSA), and the test compound (diluted with 4% DMSO) or DMSO alone (as a control)” for “BSA)”

Row | SMILES | IC50 [1] [nM] | IC50 [2] [µM] | IC50 ([3]; class symbols) [nM] | IC50 [4] [nM] | IC50 [5] [nM] | IC50 [6] [nM] | IC50 ([3]; given as bound) [nM]
1 | CCCS(=O)(=O)Nc1ccc(F)c(Nc2ncnc3ccc(-c4ccnc(F)c4)cc23)c1F [compound 24, N-(2,4-difluoro-3-(6-(2-fluoropyridin-4-yl)quinazolin-4-ylamino)phenyl)propane-1-sulfonamide] | < 300 | > 3 | 1000 to 3000 | < 2000 | 300 to 1000 | < 300 | 
2 | CCCS(=O)(=O)Nc1ccc(F)c(Nc2ncnc3ccc(-c4cnc(N(C)C)nc4)cc23)c1F [compound 51, N-(3-(6-(2-(dimethylamino)pyrimidin-5-yl)quinazolin-4-ylamino)-2,4-difluorophenyl)propane-1-sulfonamide] | 300 to 1000 |  |  |  | 1000 to 10000 | 300 to 1000 | 
3 | CCCS(=O)(=O)Nc1ccc(F)c(Nc2ncnc3ccc(-c4cccnc4F)cc23)c1F [compound 1, N-(2,4-difluoro-3-(6-(2-fluoropyridin-3-yl)quinazolin-4-ylamino)phenyl)propane-1-sulfonamide] | < 300 | > 3 |  | < 2000 | < 300 | < 300 | > 3000
4 | CCCS(=O)(=O)Nc1ccc(F)c(Nc2ncnc3ccc(-c4cccc(F)n4)cc23)c1F [compound 36, N-(2,4-difluoro-3-(6-(6-fluoropyridin-2-yl)-quinazolin-4-ylamino)phenyl)propane-1-sulfonamide] | < 300 | > 3 | 1000 to 3000 | < 2000 | 300 to 1000 | < 300 | 
5 | CCCS(=O)(=O)Nc1ccc(F)c(Nc2ccnc3ccc(-c4cccnc4F)cc23)c1F [compound 13, N-(2,4-difluoro-3-(6-(2-fluoropyridin-3-yl)-quinolin-4-ylamino)phenyl)propane-1-sulfonamide] | < 300 | > 3 |  | < 2000 | < 300 | < 300 | > 3000
6 | O=S(=O)(Nc1ccc(F)c(Nc2ncnc3ccc(-c4cccnc4F)cc23)c1F)c1ccccc1 [compound 21, N-(2,4-difluoro-3-(6-(2-fluoropyridin-3-yl)quinazolin-4-ylamino)phenyl)benzenesulfonamide] | < 300 | > 3 | 1000 to 3000 | < 2000 | < 300 | < 300 | 
7 | CCCS(=O)(=O)Nc1ccc(F)c(Nc2ncnc3ccc(-c4ccc(N(C)C)nc4)cc23)c1F [compound 54, N-(3-(6-(6-(dimethylamino)pyridin-3-yl)quinazolin-4-ylamino)-2,4-difluorophenyl)propane-1-sulfonamide] | 300 to 1000 |  |  |  | 300 to 1000 | 300 to 1000 | 
8 | CCCS(=O)(=O)Nc1ccc(F)c(Nc2ncnc3ccc(-c4cccnc4F)cc23)c1Cl [compound 9, N-(2-chloro-4-fluoro-3-(6-(2-fluoropyridin-3-yl)quinazolin-4-ylamino)phenyl)propane-1-sulfonamide] | 1000 to 10000 |  |  |  | 1000 to 10000 | 1000 to 10000 | 
9 | CCCS(=O)(=O)Nc1ccc(F)c(Nc2ncnc3ccc(-c4cccc(OCCOC)n4)cc23)c1F [compound 38, N-(2,4-difluoro-3-(6-(6-(2-methoxyethoxy)pyridin-2-yl)quinazolin-4-ylamino)phenyl)propane-1-sulfonamide] | < 300 | > 3 | 1000 to 3000 | < 2000 | 300 to 1000 | < 300 | 
10 | CCCS(=O)(=O)Nc1ccc(F)c(Nc2ncnc3cc(OCCOC)c(-c4cccnc4F)cc23)c1F [compound 29, N-(2,4-difluoro-3-(6-(2-fluoropyridin-3-yl)-7-(2-methoxyethoxy)quinazolin-4-ylamino)phenyl)propane-1-sulfonamide] | < 300 | > 3 | 300 to 1000 | < 2000 | < 300 | < 300 | 
11 | CCCS(=O)(=O)Nc1ccc(F)c(Nc2ncnc3ccc(-c4ccc(OCCN(C)C)nc4)cc23)c1F [compound 35, N-(3-(6-(6-(2-(dimethylamino)ethoxy)-pyridin-3-yl)quinazolin-4-ylamino)-2,4-difluorophenyl)propane-1-sulfonamide] | < 300 | > 3 | 300 to 1000 | < 2000 | 1000 to 10000 | < 300 | 
12 | CCCS(=O)(=O)Nc1ccc(F)c(Nc2ncnc3ccc(-c4cn[nH]c4)cc23)c1F [compound 4, N-(3-(6-(1H-pyrazol-4-yl)quinazolin-4-ylamino)-2,4-difluorophenyl)propane-1-sulfonamide] | < 300 | > 3 | 300 to 1000 |  | < 300 | < 300 | 
13 | CCCS(=O)(=O)Nc1ccc(F)c(C(=O)c2ncnc3ccc(-c4cccnc4F)cc23)c1F [compound 48, N-(2,4-difluoro-3-(6-(2-fluoropyridin-3-yl)quinazoline-4-carbonyl)phenyl)propane-1-sulfonamide] | < 300 | > 3 |  |  | < 300 | < 300 | > 3000
